Reference: patent publication US20240343747A1, “Heteroaryl compounds as inhibitors of TYK2, composition and application thereof” (Accro Bioscience (HK) Limited, priority 2021, published 2024)

Assays:
TYK2 = TYK2 (Mus musculus (Mouse), UniProt Q9R117); assay: Luciferase assay in L929 ISRE cells stimulated with IFN-α; type: cell-based; settings: IFN-α 100 ng/mL; for inhibition at 1 µM: read-out: Inhibitory activity % (1000 nM)
Procedure: • 1. L929 ISRE cells (5000 cells/well) were seeded on 96-well plates and incubated overnight at room temperature; • 2. The cells were pretreated by adding different concentrations (10 nM, 50 nM, 100 nM, 200 nM or 1000 nM) of the test compounds for 2 hours; • 3. Added IFN-α (100 ng/mL) to stimulate cells for 6 hours; • 4. Removed the upper medium, add PBS (100 μL) and washed, then removed PBS; • 5. Added PLB lysis solution (50 μL) to each well, shook the well for 15 minutes; • 6. Transferred PLB lysis solution (30 μL) to a new 96-well whiteboard, added LAR II reagent (LAR II), then quickly read the […]; • 7. Added Stop & Glo reagent (30 μL), then read the 450 nm OD value using the plate washer. • 8. The final results in Table 3 were the OD value in step 6/OD value in step 7.

TYK2 JH2 = TYK2 JH2 (Homo sapiens (Human), UniProt P29597); assay: Competitive binding assay (kinase-tagged phage, qPCR), TYK2 JH2
Procedure: (§1) For most assays, kinase-tagged T7 phage strains were prepared in an E. coli host derived from the BL21 strain. E. coli were grown to log-phase and infected with T7 phage and incubated with shaking at 32° C. until lysis. The lysates were centrifuged and filtered to remove cell debris. The remaining kinases were produced in HEK-293 cells and subsequently tagged with DNA for qPCR detection. Streptavidin coated magnetic beads were treated with biotinylated small molecule ligands for 30 minutes at room temperature to generate affinity resins for kinase assays. The liganded beads were blocked with excess biotin and washed with blocking buffer (SeaBlock (Pierce), 1% BSA, 0.05% Tween 20, 1 mM DTT) to remove unbound ligand and to reduce non-specific binding. […] Test compounds were prepared as 111X stocks in 100% DMSO. Dissociation constants (Kds) were determined using an 11-point 3-fold compound dilution series with three DMSO control points. All compounds for Kd measurements are distributed by acoustic transfer (non-contact dispensing) in 100% DMSO. The compounds were then diluted directly into the assays such that the final concentration of DMSO was 0.9%. All reactions performed in polypropylene 384-well plate. Each was a final volume of 0.02 ml. The assay plates were incubated at room temperature with shaking for 1 hour and the affinity beads were washed with wash buffer (1×PBS, 0.05% Tween 20). The beads were then re-suspended in elution buffer (1×PBS, 0.05% Tween 20, 0.5 μM nonbiotinylated affinity ligand) and incubated at room temperature with shaking for 30 minutes. The kinase concentration in the eluates was measured by qPCR.
(§2) An 11-point 3-fold serial dilution of each test compound was prepared in 100% DMSO at 100× final test concentration and subsequently diluted to 1× in the assay (final DMSO concentration=1%). Most Kds were determined using a compound top concentration=30,000 nM. If the initial Kd determined was <0.5 nM (the lowest concentration tested), the measurement was repeated with a serial dilution starting at a lower top concentration.
(§3) Binding constants (Kds) were calculated with a standard dose-response curve using the Hill equation: […]
(§4) The Hill Slope was set to −1.
(§5) Curves were fitted using a non-linear least square fit with the Levenberg-Marquardt algorithm.

JAK1 JH1 = JAK1 JH1 (Homo sapiens (Human), UniProt P23458); assay: Competitive binding assay (kinase-tagged phage, qPCR), JAK1 JH1
Procedure: as §1, §2, §3, §4, §5

TYK2/JAK1 pathway = assay: Selectivity: TYK2/JAK1 pathway, IFN-α-induced p-STAT1 in human PBMC, western blot; type: cell-based; settings: IFN-α 100 ng/mL, western blot
Procedure: Commercial human PBMC (peripheral blood mononuclear cells) were centrifuged (400 g) for 10 min, counted and planted on 6-well plates (5 million/well). Then, the compounds to be tested were added for 2 hours and IFN-α (100 ng/mL) was added to stimulate cells for 15 minutes. Protein lysate was used to lysate cells, and BCA kit was used for protein quantification. Finally, p-STAT1/STAT1, P-TYK2/TYK2 and internal reference protein B-Actin were detected by Western blot.

[1] = system: production of CXCL-10 stimulated by IFNα in PBMC; assay: ELISA: production of CXCL-10 stimulated by IFNα in PBMC; type: cell-based; settings: CXCL-10 production stimulated by IFNα in PBMC, ELISA
Procedure: • 1. Soak plate: Add 300 μL 1×washing solution and let stand for 30 seconds. After discarding the washing solution, dry the microporous plate on absorbent paper. • 2. Add standard: Add 100 μL of 2-fold standard to standard well. Add 100 μL standard dilution (serum/plasma sample) or culture medium (cell culture supernatant sample) to blank well. • 3. Add sample: Serum/plasma: Add 50 μL 1×assay buffer and 50 μL sample to sample well. Cell culture supernatant: Add 100 μL cell culture supernatant to sample well. • 4. Add detection antibody: Add 50 μL diluted detection antibody (1:100 diluted) to each well. Make sure steps 4, 5 and 6 are added continuously without interruption. The sampling process was completed within 15 minutes. • 5. Incubation: Use sealing plate film to seal the plate. shake at 300 rpm and incubate for 2 hours at room temperature. • 6. Washing: Discard the liquid, add 300 μL of washing solution and wash the plate 6 times. pat dry on blotting paper after each wash. To obtain the desired experimental performance, the residual liquid must be completely removed. • 7. Enzyme addition: Add 100 μL diluted horseradish peroxidase labeled streptavidin to each well (1:100 diluted). • 8. Incubation: Seal the plate with a new sealing film. shake at 300 rpm and incubate at room temperature for 45 minutes. • 9. Washing. Repeat step […]. • 10. Add substrate for color development: Add 100 μL of color development substrate TMB to each well, keep away from light, and incubate at room temperature for 5-30 minutes. • 11. Add Stop Solution: Add 100 μL stop solution to each well. The color changed from blue to yellow. If the color appears green or the color changes unevenly, gently tap the frame of the plate to mix well. • 12. Assay readout: Within 30 minutes, perform dual wavelength detection using a microplate reader to measure the OD at the absorption maximum at 450 nm and reference wavelengths at 570 nm or 630 nm. The calibrated OD value is the measured value at 450 nm minus the measured value at 570 nm or 630 nm.

JAK2 JH1 = JAK2 JH1 (Homo sapiens (Human), UniProt O60674); assay: Competitive binding assay (kinase-tagged phage, qPCR), JAK2 JH1
Procedure: For most assays, kinase-tagged T7 phage strains were prepared in an E. coli host derived from the BL21 strain. E. coli were grown to log-phase and infected with T7 phage and incubated with shaking at 32° C. until lysis. The lysates were centrifuged and filtered to remove cell debris. The remaining kinases were produced in HEK-293 cells and subsequently tagged with DNA for qPCR detection. Streptavidin coated magnetic beads were treated with biotinylated small molecule ligands for 30 minutes at room temperature to generate affinity resins for kinase assays. The liganded beads were blocked with excess biotin and washed with blocking buffer (SeaBlock (Pierce), 1% BSA, 0.05% Tween 20, 1 mM DTT) to remove unbound ligand and to reduce non-specific binding. […] Test compounds were prepared as 111X stocks in 100% DMSO. Dissociation constants (Kds) were determined using an 11-point 3-fold compound dilution series with three DMSO control points. […] The kinase concentration in the eluates was measured by qPCR.
An 11-point 3-fold serial dilution of each test compound was prepared in 100% DMSO at 100× final test concentration and subsequently diluted to 1× in the assay (final DMSO concentration=1%). Most Kds were determined using a compound top concentration=30,000 nM. […]
as §3

JAK2/JAK2 pathway = assay: Selectivity: JAK2/JAK2 pathway, TPO-induced p-STAT3 in MEG-1 cells, western blot; type: cell-based; settings: TPO 100 ng/mL
Procedure: MEG-1 cells were digested by trypsin, re-suspended in 1640 medium and counted. The compounds to be measured were added to 6 well plates (1 million/per well) for 2 hours, and then TPO (final concentration: 100 ng/mL) was added to stimulate cells for 30 minutes. The cells were collected and lysed with protein lysate. The protein was quantitatively tested by BCA kit. Finally, p-STAT3/STAT3 and internal reference protein β-actin were detected by western blot.

JAK1/JAK3 pathway = assay: Selectivity: JAK1/JAK3 pathway, IL-2-induced p-STAT5 in human PBMC, western blot; type: cell-based; settings: IL-2 100 ng/mL
Procedure: Commercial human PBMC (peripheral blood mononuclear cells) were centrifuged (400 g) for 10 min, counted and seeded into 6-well plates (5 million/well). The compounds to be tested were added for 2 hours and then IL-2 (100 ng/mL) was added to stimulate cells for 15 minutes. Finally, p-STAT5/STAT5 and internal reference protein β-actin were detected by Western blot.

JAK1/JAK2 pathway = assay: Selectivity: JAK1/JAK2 pathway, IFN-γ-induced p-STAT1 in HT-29 cells, western blot; type: cell-based; settings: IFN-γ 100 ng/mL
Procedure: HT-29 cells were digested by trypsin and suspended in DMEM medium and counted. The tested compounds were added into 6 well plates (400 000/per well) for 2 hours, then IFN-γ (100 ng/mL) was added to stimulate cells for 30 minutes. The cells were collected and lysed with protein lysate. The protein was quantitatively tested by BCA kit. Finally, p-STAT1/STAT1 and internal reference protein β-actin were detected by western blot.

IL-23 induced psoriasis = IL-23 induced psoriasis in mice (ear thickness); type: in vivo; settings: oral gavage twice a day, 14 days, B41 10 and 30 mg/kg, BMS986165 10 mg/kg
Procedure: Recombinant human IL-23 (100 ng/time/mouse) was injected into the right ear of mice every two days starting from day 1 of the study. The administration group included 7 mice, with EtOH:TPGS:PEG300=[…] as vehicle, compound B41 (10 mg/kg, 30 mg/kg) or BMS986165 (10 mg/kg) orally gavage twice a day the night before the first injection of IL-23. The control group was injected with vehicle alone. The experiment lasted for 14 days. The thickness of the ear was measured with a micrometer every two days.

TYK2 JH2, sequence (P29597 589-875): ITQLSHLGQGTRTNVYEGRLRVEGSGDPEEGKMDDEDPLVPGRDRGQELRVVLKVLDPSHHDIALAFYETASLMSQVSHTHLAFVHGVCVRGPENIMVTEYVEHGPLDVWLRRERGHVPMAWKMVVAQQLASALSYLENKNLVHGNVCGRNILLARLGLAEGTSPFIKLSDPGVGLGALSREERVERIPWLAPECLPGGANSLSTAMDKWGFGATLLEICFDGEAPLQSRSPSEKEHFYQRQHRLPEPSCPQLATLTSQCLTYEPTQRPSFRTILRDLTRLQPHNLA
JAK1 JH1, sequence (P23458 875-1153): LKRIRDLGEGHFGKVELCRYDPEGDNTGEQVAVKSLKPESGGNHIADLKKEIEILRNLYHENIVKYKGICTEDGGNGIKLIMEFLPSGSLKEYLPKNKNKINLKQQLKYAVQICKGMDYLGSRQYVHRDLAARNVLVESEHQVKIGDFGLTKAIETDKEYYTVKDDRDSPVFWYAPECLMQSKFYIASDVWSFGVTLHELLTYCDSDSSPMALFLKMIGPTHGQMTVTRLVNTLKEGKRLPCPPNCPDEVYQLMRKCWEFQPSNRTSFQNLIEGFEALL
TYK2, sequence (Q9R117 whole entry): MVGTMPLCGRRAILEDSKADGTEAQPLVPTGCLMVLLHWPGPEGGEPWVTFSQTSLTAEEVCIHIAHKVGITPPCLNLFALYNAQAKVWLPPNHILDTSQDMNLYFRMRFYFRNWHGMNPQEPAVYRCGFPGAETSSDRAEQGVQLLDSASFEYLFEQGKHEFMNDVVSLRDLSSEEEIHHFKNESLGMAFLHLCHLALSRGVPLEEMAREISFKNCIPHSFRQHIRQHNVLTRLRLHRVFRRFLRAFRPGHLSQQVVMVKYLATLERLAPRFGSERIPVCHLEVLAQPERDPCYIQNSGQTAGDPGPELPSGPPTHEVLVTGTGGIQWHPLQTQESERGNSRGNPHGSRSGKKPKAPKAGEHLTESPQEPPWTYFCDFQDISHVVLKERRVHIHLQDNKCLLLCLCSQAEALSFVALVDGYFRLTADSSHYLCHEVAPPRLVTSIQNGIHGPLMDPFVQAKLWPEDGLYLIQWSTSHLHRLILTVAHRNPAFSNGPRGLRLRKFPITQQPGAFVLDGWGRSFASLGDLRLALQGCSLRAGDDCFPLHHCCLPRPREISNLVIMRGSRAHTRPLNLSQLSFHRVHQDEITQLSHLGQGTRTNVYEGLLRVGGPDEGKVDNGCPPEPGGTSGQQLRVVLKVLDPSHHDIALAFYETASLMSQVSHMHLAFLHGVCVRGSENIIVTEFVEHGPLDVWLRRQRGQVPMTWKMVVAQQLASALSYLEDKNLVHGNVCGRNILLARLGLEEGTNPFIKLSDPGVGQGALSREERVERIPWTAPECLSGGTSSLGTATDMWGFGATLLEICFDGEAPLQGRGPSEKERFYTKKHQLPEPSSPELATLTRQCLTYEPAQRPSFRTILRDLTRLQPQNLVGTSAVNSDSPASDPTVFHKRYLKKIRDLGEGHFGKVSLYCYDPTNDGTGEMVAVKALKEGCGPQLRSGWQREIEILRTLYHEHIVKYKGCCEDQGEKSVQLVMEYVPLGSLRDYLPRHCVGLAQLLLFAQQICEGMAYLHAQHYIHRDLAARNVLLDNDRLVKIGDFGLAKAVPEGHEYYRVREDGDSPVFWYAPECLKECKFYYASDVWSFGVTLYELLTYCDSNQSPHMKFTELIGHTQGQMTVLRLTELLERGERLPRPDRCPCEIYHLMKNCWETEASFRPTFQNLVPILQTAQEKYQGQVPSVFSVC
JAK2 JH1, sequence (O60674 849-1124): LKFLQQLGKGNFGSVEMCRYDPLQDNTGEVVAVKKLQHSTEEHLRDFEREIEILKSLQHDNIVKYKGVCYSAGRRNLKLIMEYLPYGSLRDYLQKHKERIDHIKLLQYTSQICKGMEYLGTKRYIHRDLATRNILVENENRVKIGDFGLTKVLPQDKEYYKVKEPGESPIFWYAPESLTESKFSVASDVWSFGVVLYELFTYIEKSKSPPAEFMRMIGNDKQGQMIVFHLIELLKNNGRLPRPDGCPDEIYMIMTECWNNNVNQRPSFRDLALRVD

inhibition at 1 µM (TYK2; 1000 nM) [%] | Kd (TYK2 JH2) [nM] | Kd (JAK1 JH1) [nM] | Compound | IC50 [1] [nM] | effect on TPO-induced downstream STAT3 phosphorylation (JAK2/JAK2 pathway) | other results
62 | 0.016 | > 30000 | CCC(=O)c1cnc(NC(=O)C2CC2)cc1Nc1cccc(-c2ncc(P(C)(C)=O)cn2)c1OC [Compound B11] |  |  | 
95 | 0.0079 | > 30000 | CCC(=O)c1cnc(NC(=O)C2CC2)cc1Nc1nccc(-c2cc(P(=O)(C3CC3)C3CC3)n(C)n2)c1OC [Compound B38] | 222 |  | inhibition of downstream STAT1 phosphorylation induced by IFN-α (TYK2/JAK1 pathway): effectively inhibit; Kd (JAK2 JH1): 11000 nM
 |  |  | N#CC[C@H](C1CCCC1)n1cc(-c2ncnc3[nH]ccc23)cn1 [Ruxolitinib, reference compound] |  | could inhibit JAK2/JAK2 pathway | 
 |  |  | BMS986165 [reference compound] | 56.8 | no effect | effect on IL-2-induced downstream STAT5 phosphorylation (JAK1/JAK3 pathway): no effect; effect on downstream STAT1 phosphorylation induced by IFN-γ (JAK1/JAK2 pathway): no effect; Inhibitory activity % (50 nM) (TYK2; 50 nM): 74%; Inhibitory activity % (200 nM) (TYK2; 200 nM): 89%; Inhibitory activity % (1000 nM) (TYK2; 1000 nM): 96%; efficacy in IL-23 induced psoriasis (ear thickness) (IL-23 induced psoriasis): effectively inhibit and treat
